Here are results for six compounds from publication PMC6268262, “Improved Antileishmanial Activity of Dppz through Complexation with Antimony(III) and Bismuth(III): Investigation of the Role of the Metal” (Molecules, 2012).

Like-named read-outs stand apart in the source and are kept apart here.

The test system of data set [1] is L. amazonensis (WT) promastigotes, strain BA199. As to the kind of experiment: Antileishmanial activity assay, promastigote growth, wild-type strain. It is filed as cell-based, Leishmania amazonensis. The settings on record: 72 h, 25 °C. As for the experimental part: (§1) Leishmania (Leishmania) amazonensis (strain MHOM/BR/1989/BA199) and Leishmania (Leishmania)infantum chagasi (strain MCAN/BR/2002/BH400) promastigotes were maintained in minimum essential culture medium (α-MEM) (Gibco, Invitrogen, Grand Island, NY, USA) supplemented with 10% (v/v) heat inactivated fetal calf serum (Cultilab, Campinas, SP, Brazil), […] kanamycin, […] ampicillin, 2 mM L-glutamine, 5 mg/mL hemin, 5 mM biopterin, (Sigma-Aldrich), pH 7.0 and incubated at 25 °C. L. amazonensis and L. infantum chagasi were selected for Sb(III) resistance as previously decribed. The Sb(III)-resistant mutants L. amazonensis BA199Sb2700.2 and L. infantum chagasi BH400Sb2700.2 were selected in 25 cm^2 flasks containing 5 mL of α-MEM in the presence of increasing Sb(III) concentrations up to 2,700 μM.
(§2) Complexes 1 and 2 were evaluated in vitro for their activity against both Sb(III)-sensitive and -resistant Leishmania parasites. Log-phase L. amazonensis and L. infantum chagasi promastigotes (1 × 10^6 parasites/mL) were seeded in 24-wells cell culture plates with 1.5 mL of α-MEM, incubated under shaking at 25 °C during 72 h in the presence of several concentrations of complex 1 or 2. Controls were performed using cultures in the presence of potassium antimonyl tartrate, SbCl3, BiCl3 and dppz itself. Non-treated parasites were established for growth comparison. Stock solutions of dppz, its complexes, SbCl3 and BiCl3 were dissolved in DMSO (5 M) and diluted in α-MEM cell culture medium to obtain the range of tested concentrations. […] For drug susceptibility assay, Leishmania growth curves were constructed by measuring absorbance at 600 nm. […] All experiments were done at least three times as independent experiments performed in triplicate.
(§3) The IC50 and CC50 values were calculated by nonlinear regression using the software GraphPad Prism 5.0. The acceptable level of significance was 95% (p < 0.05).

Data set [2] deals with L. infantum chagasi (WT) promastigotes, strain BH400. As to the kind of experiment: Antileishmanial activity assay, promastigote growth (absorbance 600 nm), wild-type strain. It counts as cell-based, Leishmania infantum chagasi. The settings on record: 72 h, 25 °C. As for the experimental part: as §1, §2, §3
Data set [3] relates to L. amazonensis (SbR) promastigotes, BA199Sb2700.2. Kind of data set: Antileishmanial activity assay, promastigote growth, Sb-resistant mutant. The settings on record: 72 h, read-out: IC50 (μM) ± SEM. It is filed as cell-based, Leishmania amazonensis. On the procedure:
as §1, §2, §3

In data set [4] the test system is L. infantum chagasi (SbR) promastigotes, BH400Sb2700.2. The data set is described as above. It is filed as cell-based, Leishmania infantum chagasi. The following applies: 72 h, read-out: IC50 (μM) ± SEM. As for the experimental part: as §1, §2, §3
The test system of another data set is Leishmania promastigotes. Kind of data set: microbe, parasite or virus in culture. It is filed as cell-based, Leishmania infantum chagasi and Leishmania amazonensis. The settings on record: for concentration in whose presence Sb-resistant lines failed to grow: L. infantum chagasi BH400 Sb2700.2 and L. amazonensis BA199 Sb2700.2. On the procedure:
as §1, §2

Data set [5] concerns mouse peritoneal macrophages. As to the kind of experiment: Cytotoxicity assay against peritoneal macrophages (MTT). It counts as cell-based. On the procedure:
(§4) Macrophages were obtained by lavage of peritoneal cavity of mice with 10 mL cold RPMI without FBS. After washing, the cell suspension (4.0 × 10^6/mL) was seeded (0.1 mL) in 96-well flat bottom plates. Macrophages were allowed to adhere for 2 h and non-adherent cells were removed by washing with RPMI. Then, the studied compounds were added to the wells at concentrations ranging from 1 to 20 μM and the cells were further cultured in RPMI-1640 supplemented with 10% FBS for 24 h at 37 °C in a humidified 5% CO2 atmosphere. Thereafter, the medium was replaced with fresh RPMI containing 0.5 mg/mL of MTT and the plates were incubated for additional 4 h. Supernatants were aspirated and the formazan crystals formed were dissolved in 100 μL of DMSO. After 15 min of incubation at room temperature, absorbance of solubilized MTT formazan product was spectrophotometrically measured at 570 nm.
as §3

Assay in data set [6]: as above
It is filed as cell-based, mouse. The following applies: mouse peritoneal macrophages, MTT, 24 h. On the procedure: as §4, §3

Data set [7] in a line: n-Octanol/water partition coefficient, Shake-Flask method. It counts as physicochemical. The settings on record: phosphate buffer pH 6.8. As for the experimental part: Then, three different partition system were prepared by adding these solutions to water-saturated octanol, in octanol/water volume ratios, 1:1, 1:2 and 2:1 in duplicate. The mixtures were vortexed for 10 min and then centrifuged for 5 min. The partition coefficients were determined using the absorbance of complexes 1 and 2. Calculated dppz log P value was obtained from the program ALOGPS 2.143 available on line.

Data set [8] is described as follows: Stability of the complexes by UV absorption spectroscopy. It is filed as physicochemical. The following applies: 10 µmol·L^−1 in DMSO, DMSO-containing water and octanol, 0 to 4 h. As for the experimental part:
The stability of the complexes was checked by UV absorption spectroscopy. For this purpose, UV absorption spectra were registered at different time intervals (from 0 to 4 h) for dppz and complexes 1 and 2 at 10 µmol·L^−1 in DMSO, DMSO-containing water and octanol.

[9] abbreviates: L. amazonensis (SbR) promastigotes, 25 °C.
Setting [10] is: L. infantum chagasi (SbR) promastigotes, 25 °C.
Where [11] appears, read: listed as dppzBiCl3, read-out: IC50 (μM) ± SEM.
Setting [12] is: listed as dppzSbCl3, read-out: IC50 (μM) ± SEM.

As usually defined, the IC50 is the point on the concentration scale where inhibition reaches its midpoint. In the case of `[Cl][Bi]([Cl])[Cl]` [BiCl3, Bi(III) chloride], the IC50 in [1] (read-out: IC50 (μM) ± SEM) is 621 ± 2 µM; in [2] (read-out: IC50 (μM) ± SEM) it was 563 ± 2 µM; in [3] (setting [9]), greater than 500 µM; in data set [4] (setting [10]), greater than 500 µM.

Consider `c1ccc2nc3c4cccnc4c4ncccc4c3nc2c1` [Dppz, dipyrido[3,2-a:2',3'-c]phenazine], for which the IC50 in the data set with Leishmania promastigotes (Leishmania, read-out: IC50 range over strains) is 800 to 2000 nM; in data set [1] (Leishmania amazonensis, read-out: IC50 (μM) ± SEM) it was greater than 2 µM; in [2] (Leishmania infantum, read-out: IC50 (μM) ± SEM), 0.81 ± 0.04 µM; in [3] (Leishmania amazonensis), 2 ± 0.05 µM; in [4] (Leishmania infantum), 1.86 ± 0.08 µM. The “SI: selective index” value in [5] (ratio between CC50 in murine macrophages and IC50 in L. infantum chagasi (WT)) was 15.4. In data set [6], this compound had a CC50 at 24 h of 12.5 µM.

As for `[Cl][Sb]([Cl])[Cl]` [SbCl3, antimony trichloride], the IC50 in data set [1] (read-out: IC50 (μM) ± SEM) turned out to be 362 ± 2 µM; in data set [2] (read-out: IC50 (μM) ± SEM), 341 ± 2 µM; in data set [3] (setting [9]), 1503 ± 2 µM; in data set [4] (setting [10]) it was 462 ± 3 µM.

Take [Bi(dppz)Cl3] [complex 2]: the “concentration in whose presence Sb-resistant lines failed to grow” value with Leishmania promastigotes was no more than 1.12 µM. The IC50 was 1.07 ± 0.03 µM in data set [1] (setting [11]); roughly 1 µM in data set [1] (read-out: IC50 (μM) ± SEM); 0.59 ± 0.01 µM in data set [2] (setting [11]); roughly 0.6 µM in [2] (read-out: IC50 (μM) ± SEM); 1.12 ± 0.01 µM in data set [3] (setting [9]); 0.61 ± 0.02 µM in [4] (setting [10]). Moreover, the “log P (octanol/water partition coefficient)” value in [7] was found to be 0.98 ± 0.17. Besides, the “UV absorption spectra as a function of time (stability)” value in [8] is recorded as “did not show significant changes as a function of time”.

For `O=C([O-])[C@H]([O-])[C@@H]([O-])C(=O)[O-].O=C([O-])[C@H]([O-])[C@@H]([O-])C(=O)[O-].[K+].[K+].[Sb+3].[Sb+3]` [TA, potassium antimonyl tartrate], the IC50 is 83 ± 1 µM in data set [1] (read-out: IC50 (μM) ± SEM), 100 ± 3 µM in data set [2] (read-out: IC50 (μM) ± SEM), greater than 2700 µM in data set [3] (setting [9]) and greater than 2700 µM in data set [4] (setting [10]).

Turning to [Sb(dppz)Cl3] [complex 1], the “concentration in whose presence Sb-resistant lines failed to grow” value in the data set on Leishmania promastigotes was no more than 1.12 µM. For the same compound, the IC50 is 0.95 ± 0.02 µM in data set [1] (setting [12]); roughly 1 µM in data set [1] (read-out: IC50 (μM) ± SEM); 0.62 ± 0.01 µM in data set [2] (setting [12]); roughly 0.6 µM in [2] (read-out: IC50 (μM) ± SEM); 0.92 ± 0.02 µM in data set [3] (setting [9]); 0.57 ± 0.01 µM in [4] (setting [10]). Moreover, the CC50 in data set [5] (read-out: CC50: concentration of dppz which is cytotoxic against 50% of macrophages, mouse peritoneal macrophages, MTT, 24 h) was 7 µM. Also, the “log P (octanol/water partition coefficient)” value in [7] was determined as 0.94 ± 0.24. Besides, in data set [8], the “UV absorption spectra as a function of time (stability)” value is “did not show significant changes as a function of time”.
